The experiment has as its target human P2X3 receptor (Homo sapiens (Human), UniProt P56373). The experiment in a line: Evaluation of human P2X3 receptor inhibitory activity (Test Example 1). The experiment is classed as cell-based. The conditions noted are these: C6BU-1 cell transfected with human P2X3 receptor gene, FLIPR 384. The method, then: Stably expressing cell line (C6BU-1 cell transfected with human P2X3 receptor gene (GenBank accession number Y07683) was used. The cells were seeded in a 384-well PDL-coated microtiter plate at a concentration of 3000 cells/well and cultured in the medium (8.3% fetal bovine serum, 8.3% horse serum, and 1% antibiotic and antifungal in DMEM) for one day at 37° C. under 5% carbon dioxide atmosphere. The medium was replaced with 4 μM Fluo-3-AM solution (20 mM HEPES, 137 mM NaCl, 2.7 mM KCl, 0.9 mM MgCl2, 5.0 mM CaCl2, 5.6 mM D-glucose, 2.5 mM probenecid, 0.5% BSA, and 0.04% Pluronic F-127, pH 7.5) and incubated at 37° C. under 5% dioxide carbon atmosphere for one hour. The plate was washed with washing buffer (20 mM HEPES, 137 mM NaCl, 2.7 mM KCl, 0.9 mM MgCl2, 5.0 mM CaCl2, 5.6 mM D-glucose, 2.5 mM probenecid, pH7.5), and each well was added with 20 μL of the washing buffer. The plate was placed in High-Throughput Screening System FLIPR 384 (Molecular Device Co.). Measurement of fluorescence intensity by FLIPR 384 was started, and 20 μL of DMSO solutions containing different concentrations of the test compound as prepared by dilution with dilution buffer (20 mM HEPES, 137 mM NaCl, 2.7 mM KCl, 0.9 mM MgCl2, 5.0 mM CaCl2, 5.6 mM D-glucose, 2.5 mM probenecid, 0.1% Pluronic F-127, pH7.5) were dispensed to each well through the built-in automatic dispenser. Five minutes after, 150 nM ATP solution (25 μL) prepared by dilution with the dilution buffer was dispensed through the built-in automatic dispenser, and the measurement of fluorescence intensity was continued for 4 min. For each well, the specific maximum fluorescence intensity was calculated as the ratio of the maximum fluorescence intensity after addition of the ATP solution to the fluorescence intensity at the starting of the measurement. […] The specific maximum fluorescence intensity and IC50 were calculated using Spotfire (Science & Technology Systems, Inc.)
human P2X3 receptor, sequence (P56373 whole entry): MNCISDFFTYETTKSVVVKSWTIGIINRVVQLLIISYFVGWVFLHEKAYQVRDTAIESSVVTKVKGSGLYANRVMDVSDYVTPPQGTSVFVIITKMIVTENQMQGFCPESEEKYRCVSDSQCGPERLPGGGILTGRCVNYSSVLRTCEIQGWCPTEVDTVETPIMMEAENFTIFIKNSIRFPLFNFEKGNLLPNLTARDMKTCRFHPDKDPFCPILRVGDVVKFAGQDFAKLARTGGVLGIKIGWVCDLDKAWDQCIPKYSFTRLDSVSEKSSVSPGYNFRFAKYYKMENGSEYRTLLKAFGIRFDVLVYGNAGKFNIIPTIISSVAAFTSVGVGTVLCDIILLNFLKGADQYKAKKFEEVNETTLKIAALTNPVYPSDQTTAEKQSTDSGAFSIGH
As usually defined, the IC50 is the midpoint of a concentration-inhibition curve. Higher therefore signals weaker potency in that assay. Consider `CCOC(=O)[C@H]1C[C@H](n2c(=O)[nH]/c(=N\c3ccc(Oc4ncccc4F)cc3)n(Cc3ccc(Cl)cc3)c2=O)C1` [Compound I-061], for which half-maximal inhibition (IC50) was put at 62 nM. In the case of `CCOC(=O)[C@H]1C[C@@H](n2c(=O)[nH]/c(=N\c3ccc(Oc4ncccc4F)cc3)n(Cc3ccc(Cl)cc3)c2=O)C1` [Compound I-062], inhibition was half-maximal at 31 nM (IC50). Compound `O=c1[nH]/c(=N\c2ccc(Oc3ncccc3F)cc2)n(Cc2ccc(Cl)cc2)c(=O)n1[C@H]1C[C@@H](C(=O)O)C1` [Compound I-064] yielded a half-maximal inhibitory concentration (IC50) of 10 nM. With `C[C@@H](Cn1c(=O)[nH]/c(=N\c2ccc(Oc3cc(Cl)ccn3)cc2)n(Cc2ccc(Cl)cc2)c1=O)C(=O)O` [Compound I-065], the IC50 came out at 8 nM.

As for `CCOC(=O)C1(Cn2c(=O)[nH]/c(=N\c3ccc(Oc4ncccc4F)cc3)n(Cc3ccc(Cl)cc3)c2=O)CC1` [Compound I-066], the midpoint of inhibition, the IC50, lay at 15 nM.

Regarding `O=C(O)C1(Cn2c(=O)[nH]/c(=N\c3ccc(Oc4ncccc4F)cc3)n(Cc3ccc(Cl)cc3)c2=O)CC1` [Compound I-067], half-maximal inhibition (IC50) required 11 nM.

For the compound `COC(=O)[C@@H](C)Cn1c(=O)[nH]/c(=N\c2ccc(Oc3cc(F)ccn3)cc2)n(Cc2ccc(Cl)cc2)c1=O` [Compound I-068], the IC50 is 5 nM. Next, `COc1ccnc(Oc2ccc(/N=c3\[nH]c(=O)n(C[C@H](C)C(=O)O)c(=O)n3Cc3ccc(Cl)cc3)cc2)c1` [Compound I-069]: 7 nM. Take `COC(=O)[C@H](C)[C@H](C)n1c(=O)[nH]/c(=N\c2ccc(Oc3ccc(OC(F)F)cn3)cc2)n(Cc2ccc(Cl)cc2)c1=O` [Compound I-071]: half-maximal inhibition (IC50) was put at 38 nM.

`C[C@@H](C(=O)O)[C@H](C)n1c(=O)[nH]/c(=N\c2ccc(Oc3ccc(OC(F)F)cn3)cc2)n(Cc2ccc(Cl)cc2)c1=O` [Compound I-072] displayed a half-maximal inhibitory concentration (IC50) of 6 nM. As to `COC(=O)[C@H](C)[C@H](C)n1c(=O)[nH]/c(=N\c2ccc(Oc3ccc(C)cn3)cc2)n(Cc2ccc(Cl)cc2)c1=O` [Compound I-073], 15 nM corresponded to half-maximal inhibition (IC50). The compound `Cc1ccc(Oc2ccc(/N=c3\[nH]c(=O)n([C@@H](C)[C@@H](C)C(=O)O)c(=O)n3Cc3ccc(Cl)cc3)cc2)nc1` [Compound I-074] displayed an IC50 of 5 nM. In the case of `COC(=O)[C@H](C)[C@H](C)n1c(=O)[nH]/c(=N\c2ccc(Oc3cc(C#N)ccn3)cc2)n(Cc2ccc(Cl)cc2)c1=O` [Compound I-075], the midpoint of inhibition, the IC50, lay at 21 nM. On to `COC(=O)[C@@H](C)Cn1c(=O)[nH]/c(=N\c2ccc(Oc3cc(C)ccn3)cc2)n(Cc2ccc(Cl)cc2)c1=O` [Compound I-076], for which the midpoint of inhibition, the IC50, lay at 22 nM. Next, `Cc1cccnc1Oc1ccc(/N=c2\[nH]c(=O)n(C[C@H](C)C(=O)O)c(=O)n2Cc2ccc(Cl)cc2)cc1` [Compound I-077]: 10 nM; `Cc1cccnc1Oc1ccc(/N=c2\[nH]c(=O)n(CC(C)(C)C(=O)O)c(=O)n2Cc2ccc(Cl)cc2)cc1` [Compound I-078]: 19 nM.

`COc1ccc(Oc2ccc(/N=c3\[nH]c(=O)n(C[C@H](C)C(=O)O)c(=O)n3Cc3ccc(Cl)cc3)cc2)nc1` [Compound I-079]: the IC50 is 5 nM. Compound `Cc1ccnc(Oc2ccc(/N=c3\[nH]c(=O)n(C[C@H](C)C(=O)O)c(=O)n3Cc3ccc(Cl)cc3)cc2)c1` [Compound I-080] came in with an IC50 of 10 nM. In the case of `COC(=O)C(C)(C)Cn1c(=O)[nH]/c(=N\c2ccc(Oc3cc(Cl)ccn3)cc2)n(Cc2ccc(Cl)cc2)c1=O` [Compound I-081] it was 38 nM. Compound `COC(=O)[C@@H](C)Cn1c(=O)[nH]/c(=N\c2ccc(Oc3cc(C(F)(F)F)ccn3)cc2)n(Cc2ccc(Cl)cc2)c1=O` [Compound I-082] gave a half-maximal inhibitory concentration (IC50) of 112 nM.

The compound `COC(=O)[C@@H](C)Cn1c(=O)[nH]/c(=N\c2ccc(Oc3ccc(CO)cn3)cc2)n(Cc2ccc(Cl)cc2)c1=O` [Compound I-083] returned an IC50 of 6 nM. The compound `C[C@@H](Cn1c(=O)[nH]/c(=N\c2ccc(Oc3ccc(CO)cn3)cc2)n(Cc2ccc(Cl)cc2)c1=O)C(=O)O` [Compound I-084] gave an IC50 of 8 nM. `COC(=O)C(C)(C)Cn1c(=O)[nH]/c(=N\c2ccc(Oc3cc(C(F)(F)F)ccn3)cc2)n(Cc2ccc(Cl)cc2)c1=O` [Compound I-085] gave an IC50 of 225 nM.

Compound `CC(C)(Cn1c(=O)[nH]/c(=N\c2ccc(Oc3cc(Cl)ccn3)cc2)n(Cc2ccc(Cl)cc2)c1=O)C(=O)O` [Compound I-086] had a 50% inhibitory concentration (IC50) of 33 nM. In turn, `COC(=O)[C@H](C)[C@H](C)n1c(=O)[nH]/c(=N\c2ccc(Oc3cc(Cl)ccn3)cc2)n(Cc2ccc(Cl)cc2)c1=O` [Compound I-087] came in with a half-maximal inhibitory concentration (IC50) of 107 nM.

For `C[C@@H](Cn1c(=O)[nH]/c(=N\c2ccc(Oc3cc(C(F)(F)F)ccn3)cc2)n(Cc2ccc(Cl)cc2)c1=O)C(=O)O` [Compound I-088], the concentration for half-maximal inhibition (IC50) worked out at 15 nM.

In the case of `CCOC(=O)C[C@H](O)Cn1c(=O)[nH]/c(=N\c2ccc(Oc3ccc(F)cn3)cc2)n(Cc2ccc(Cl)cc2)c1=O` [Compound I-089], half-maximal inhibition (IC50) required 8 nM.

Compound `O=C(O)C[C@H](O)Cn1c(=O)[nH]/c(=N\c2ccc(Oc3ccc(F)cn3)cc2)n(Cc2ccc(Cl)cc2)c1=O` [Compound I-090] registered a half-maximal inhibitory concentration (IC50) of 72 nM. Take `C[C@@H](C(=O)O)[C@H](C)n1c(=O)[nH]/c(=N\c2ccc(Oc3cc(Cl)ccn3)cc2)n(Cc2ccc(Cl)cc2)c1=O` [Compound I-091]: the IC50 turned out to be 10 nM. In the case of `CC(C)(Cn1c(=O)[nH]/c(=N\c2ccc(Oc3cc(C(F)(F)F)ccn3)cc2)n(Cc2ccc(Cl)cc2)c1=O)C(=O)O` [Compound I-092] it was 68 nM; in that of `COc1ccc(Oc2ccc(/N=c3\[nH]c(=O)n(CC(C)(C)C(=O)O)c(=O)n3Cc3ccc(Cl)cc3)cc2)nc1` [Compound I-093], 16 nM; in that of `COc1ccc(Oc2ccc(/N=c3\[nH]c(=O)n([C@@H](C)[C@@H](C)C(=O)O)c(=O)n3Cc3ccc(Cl)cc3)cc2)nc1` [Compound I-094], 11 nM. Compound `COC(=O)[C@H](C)[C@H](C)n1c(=O)[nH]/c(=N\c2ccc(Oc3ncccc3F)cc2)n(Cc2ccc(C)cc2)c1=O` [Compound I-095] had a 50% inhibitory concentration (IC50) of 9 nM.

Turning to `Cc1ccc(Cn2c(=O)n([C@@H](C)[C@@H](C)C(=O)O)c(=O)[nH]/c2=N\c2ccc(Oc3ncccc3F)cc2)cc1` [Compound I-096], the 50% inhibitory concentration (IC50) was found to be 8 nM.

In the case of `COC(=O)[C@@H](C)Cn1c(=O)[nH]/c(=N\c2ccc(Oc3ccc(Cl)cn3)cc2)n(Cc2ccc(C)cc2)c1=O` [Compound I-097], it took 5 nM to reach half-maximal inhibition (IC50).

In turn, `COC(=O)C(C)(C)Cn1c(=O)[nH]/c(=N\c2ccc(Oc3ccc(Cl)cn3)cc2)n(Cc2ccc(C)cc2)c1=O` [Compound I-098] came in with a 50% inhibitory concentration (IC50) of 7 nM. In the case of `COC(=O)[C@H](Cn1c(=O)[nH]/c(=N\c2ccc(Oc3ncccc3F)cc2)n(Cc2ccc(Cl)cc2)c1=O)OC` [Compound I-099] it was 6 nM.

`Cc1ccc(Cn2c(=O)n(C[C@H](C)C(=O)O)c(=O)[nH]/c2=N\c2ccc(Oc3ccc(Cl)cn3)cc2)cc1` [Compound I-100]: the IC50 is 4 nM. With `Cc1ccc(Cn2c(=O)n(CC(C)(C)C(=O)O)c(=O)[nH]/c2=N\c2ccc(Oc3ccc(Cl)cn3)cc2)cc1` [Compound I-101], half-maximal inhibition (IC50) required 5 nM. In the case of `CO[C@@H](Cn1c(=O)[nH]/c(=N\c2ccc(Oc3ncccc3F)cc2)n(Cc2ccc(Cl)cc2)c1=O)C(=O)O` [Compound I-102] it was 5 nM.

The values are drawn from patent US10065941B2, “Aminotriazine derivative and pharmaceutical composition comprising the same” (Shionogi & Co., Ltd., priority 2013, dated 2018).
